Here are results for three molecules from paper PMC3454463 (2012).

Holding throughout (format): binding
The target in test [1] is T1, MD2 (myeloid differentiation protein 2) (Homo sapiens, UniProt Q9Y6Y9).
T1 sequence (Q9Y6Y9 19-160): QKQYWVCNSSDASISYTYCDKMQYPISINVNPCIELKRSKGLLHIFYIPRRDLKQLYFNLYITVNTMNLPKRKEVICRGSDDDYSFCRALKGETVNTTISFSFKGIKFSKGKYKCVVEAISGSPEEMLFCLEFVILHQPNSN
Description: quenching of MD2 intrinsic fluorescence.

In test [2] the target is T1, MD2 (myeloid differentiation protein 2). In words: quenching of MD2 intrinsic fluorescence. The source holds these as a separate data set.
The target is the same in test [3]. Description: Bis-ANS-MD2 complex fluorescence, displaced by.

Each structure is given as a SMILES string. Where two headings read alike, the source gives them in different places.

Regarding `C=CCN1CC[C@@]23c4c5ccc(O)c4O[C@@H]2C(=O)CC[C@]3(O)[C@@H]1C5` [(+)-naloxone], in test [1], the affinity, expressed as Kd, was 16.6 ± 4.7 µM. With `C=CCN1CC[C@]23c4c5ccc(O)c4O[C@H]2C(=O)CC[C@@]3(O)[C@H]1C5` [(−)-naloxone], in test [2], the Kd – broadly, the constant that tells how readily two partners part at equilibrium – was 17.7 ± 3.2 µM. `O=S(=O)(O)c1cccc2c(-c3ccc(Nc4ccccc4)c4c(S(=O)(=O)O)cccc34)ccc(Nc3ccccc3)c12` [Bis-ANS]: the “Bis-ANS-MD2 complex fluorescence, displaced by (+)-naloxone” value in test [3] was “(+)-Naloxone decreased Bis-ANS-MD2 complex fluorescence, suggesting that (+)-naloxone replaces Bis-ANS binding to MD2”.
